Patent US7169786B2, “Isoxazoline derivatives as anti-depressants” (priority 2001, dated 2007)
pIC50: −log10 of the molar value. Where two headings read alike, the source gives them in different places. Values belong to the compound of their own block, whether it stands above or below them.

Tests used:
[1] = biological target: T1, hα2B receptor (Homo sapiens, UniProt P18089); assay: Radioligand binding experiment for hα2B receptor ([3H]-raulwolscine); conditions: for IC50: read-out: hα2B pIC50 (converted)
T1 construct: expressed in transfected cells
T1 sequence (P18089 1-450): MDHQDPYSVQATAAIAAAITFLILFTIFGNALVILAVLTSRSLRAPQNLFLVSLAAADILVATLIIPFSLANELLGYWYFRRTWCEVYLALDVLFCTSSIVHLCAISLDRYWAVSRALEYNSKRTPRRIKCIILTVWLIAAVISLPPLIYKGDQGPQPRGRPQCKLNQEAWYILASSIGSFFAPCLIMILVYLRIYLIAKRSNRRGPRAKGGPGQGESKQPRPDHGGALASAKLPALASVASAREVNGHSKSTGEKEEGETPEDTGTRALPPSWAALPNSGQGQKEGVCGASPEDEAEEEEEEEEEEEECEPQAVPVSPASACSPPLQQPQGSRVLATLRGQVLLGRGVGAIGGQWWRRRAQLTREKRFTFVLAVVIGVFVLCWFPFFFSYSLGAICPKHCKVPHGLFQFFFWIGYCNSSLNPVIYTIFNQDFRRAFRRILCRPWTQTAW
Description: (§1) The interaction of the compounds of Formula (I) with hα2-receptors and h5-HT-transporters was assessed in in vitro radioligand binding experiments. In general, a low concentration of a radioligand with a high binding affinity for a particular receptor or transporter is incubated with a sample of a tissue preparation enriched in a particular receptor or transporter or with a preparation of cells expressing cloned human receptors in a buffered medium. During the incubation, the radioligand binds to the receptor or transporter. When equilibrium of binding is reached, the receptor bound radioactivity is separated from the non-bound radioactivity, and the receptor- or transporter-bound activity is counted. The interaction of the test compounds with the receptor is assessed in competition binding experiments. Various concentrations of the test compound are added to the incubation mixture containing the receptor- or transporter preparation and the radioligand. The test compound in proportion to its binding affinity and its concentration inhibits binding of the radioligand. The radioligand used for hα2A, hα2B and hα2C receptor binding was [^3H]-raulwolscine and for the h5-HT transporter was [^3H]paroxetine.
(§2) CHO cells, stabile transfected with human adrenergic-α2A-, -α2B or α2C receptor cDNA, were cultured in Dulbecco's Modified Eagle's Medium (DMEM)/Nutrient mixture Ham's F12 (ratio 1:1)(Gibco, Gent-Belgium) supplemented with 10% heat inactivated fetal calf serum (Life Technologies, Merelbeke-Belgium) and antibiotics (100 IU/ml penicillin G, 100 μg/ml streptomycin sulphate, 110 μg/ml pyruvic acid and 100 μg/ml L-glutamine). One day before collection, cells were induced with 5 mM sodiumbutyrate. Upon 80–90% of confluence, cells were scraped in phosphate buffered saline without Ca^2+ and Mg^2+ and collected by centrifugation at 1500×g for 10 min. The cells were homogenised in Tris-HCl 50 mM using an Ultraturrax homogenizer and centrifuged for 10 min at 23,500×g. The pellet was washed once by resuspension and rehomogenization and the final pellet was resuspended in Tris-HCl, divided in 1 ml aliquots and stored at −70° C.
(§3) Membranes were thawed and re-homogenized in incubation buffer (glycylglycine 25 mM, pH 8.0). […] Filters were rinsed extensively with ice-cold rinsing buffer (Tris-HCl 50 mM pH 7.4). Filter-bound radioactivity was determined by scintillation counting in a Topcount (Packard, Meriden, Conn.) and results were expressed as counts per minute (cpm). Non-specific binding was determined in the presence of 1 μM oxymetazoline for hα2A- and hα2B receptors and 1 μM spiroxatrine for hα2C receptors.
(§4) Data from assays in the presence of compound were calculated as a percentage of total binding measured in the absence of test compound. Inhibition curves, plotting percent of total binding versus the log value of the concentration of the test compound, were automatically generated, and sigmoidal inhibition curves were fitted using non-linear regression. The pIC50 values of test compounds were derived from individual curves.

[2] = biological target: T2, h5-HT transporter (Homo sapiens, UniProt P31645); assay: Radioligand binding experiment for 5-HT transporter ([3H]paroxetine, human platelet membranes); conditions: for IC50: read-out: 5HTT pIC50 (converted); for pIC50: 5HTT pIC50
T2 construct: Human platelet membranes (Oceanix Biosciences Corporation, Hanover, Md., USA) were thawed; tissue Oceanix Biosciences Corporation, Hanover, Md., USA; host or cells: human platelet membranes
T2 sequence (P31645 whole entry): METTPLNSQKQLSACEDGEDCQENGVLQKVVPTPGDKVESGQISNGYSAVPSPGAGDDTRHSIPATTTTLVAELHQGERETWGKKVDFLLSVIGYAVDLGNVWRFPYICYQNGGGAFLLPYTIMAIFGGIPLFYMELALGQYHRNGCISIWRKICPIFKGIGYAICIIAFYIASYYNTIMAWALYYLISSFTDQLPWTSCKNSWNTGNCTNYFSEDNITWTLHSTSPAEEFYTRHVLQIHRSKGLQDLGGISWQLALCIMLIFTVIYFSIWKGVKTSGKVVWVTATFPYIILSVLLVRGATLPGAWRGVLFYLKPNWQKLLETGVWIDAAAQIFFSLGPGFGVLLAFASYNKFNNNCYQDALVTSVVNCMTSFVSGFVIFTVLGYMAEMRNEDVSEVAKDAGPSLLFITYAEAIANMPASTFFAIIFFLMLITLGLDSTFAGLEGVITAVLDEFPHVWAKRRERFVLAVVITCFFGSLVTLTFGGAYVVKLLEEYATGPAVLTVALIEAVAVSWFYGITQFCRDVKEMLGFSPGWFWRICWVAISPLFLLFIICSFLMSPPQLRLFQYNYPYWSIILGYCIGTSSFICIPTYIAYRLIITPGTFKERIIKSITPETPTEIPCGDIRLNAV
Description: as §1
Human platelet membranes (Oceanix Biosciences Corporation, Hanover, Md., USA) were thawed, diluted in buffer (Tris-HCl 50 mM, 120 mM NaCl and 5 mM KCl) and quickly (max 3 s) homogenised with an Ultraturrax homogenizer. […] Filters were rinsed extensively with ice-cold buffer and radioactivity on the filters was counted in a Topcount liquid scintillation counter (Packard, Meriden, Conn.). Data were expressed as cpm. Imipramine (at 1 μM final concentration) was used to determine the non-specific binding.
as §4

[3] = biological target: T3, hα2C receptor (Homo sapiens, UniProt P18825); assay: Radioligand binding experiment for hα2C receptor ([3H]-raulwolscine); conditions: for IC50: read-out: hα2C pIC50 (converted); for pIC50: hα2C pIC50, membranes of CHO cells expressing human α2C receptor
T3 construct: expressed in transfected cells
T3 sequence (P18825 1-462): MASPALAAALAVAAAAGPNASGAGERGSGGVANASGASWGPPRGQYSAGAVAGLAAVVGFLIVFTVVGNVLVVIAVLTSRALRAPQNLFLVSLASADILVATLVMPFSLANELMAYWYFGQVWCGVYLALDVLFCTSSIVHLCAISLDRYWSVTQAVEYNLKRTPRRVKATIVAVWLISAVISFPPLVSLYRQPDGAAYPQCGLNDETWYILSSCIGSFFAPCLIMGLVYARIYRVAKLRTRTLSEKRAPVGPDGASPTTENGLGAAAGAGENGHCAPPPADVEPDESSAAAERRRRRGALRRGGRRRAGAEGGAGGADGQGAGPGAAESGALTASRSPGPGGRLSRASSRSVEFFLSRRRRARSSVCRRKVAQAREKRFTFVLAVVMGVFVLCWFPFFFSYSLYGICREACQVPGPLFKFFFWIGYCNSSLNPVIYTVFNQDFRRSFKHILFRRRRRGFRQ
Description: as §1, §2, §3, §4

[4] = membranes of CHO cells expressing human α2B receptor, [3H]raulwolscine 1 nM
[5] = membranes of CHO cells expressing human α2C receptor, [3H]raulwolscine 1 nM
[6] = human platelet membranes, [3H]paroxetine 0.5 nM

SMILES: COc1cc2c(cc1OC)C1=NOC(CN3CCN(C/C=C/c4ccccc4)CC3)C1CO2 (single isomer, unassigned) [Compound 8]
- IC50 [1]: 7.24 nM
- IC50 [2]: 17.8 nM

SMILES: c1ccc2c(c1)NCC1C2=NOC1CN1CCN(Cc2ccc3ccccc3c2)CC1 (stereo not shown) [Compound 9]
- IC50 [1, 4]: 4.68 nM
- IC50 [3, 5]: 107 nM
- IC50 [2, 6]: 1.58 nM

SMILES: CCNC(=O)Oc1ccc2c(c1)OCC1C2=NOC1CN1CCN(CC(C)=Cc2ccccc2)CC1 (stereo not shown) [Compound 238]
- pIC50 ([1]; hα2B pIC50, membranes of CHO cells expressing human α2B receptor, [3H]raulwolscine 1 nM): 8.62
- pIC50 ([3]; [3H]raulwolscine 1 nM): 8.59
- pIC50 [2]: 8.07

SMILES: COc1cc2c(cc1OC)C1=NOC(CN3CCN(C/C=C/c4ccccc4)CC3)C1CO2 (single isomer, unassigned) [Compound 1]
- IC50 [1]: 3.24 nM
- IC50 [2]: 5.13 nM

- IC50 [3, 5]: 1000 nM
- IC50 [2, 6]: 355 nM
SMILES: COc1cc2c(cc1OC)C1=NOC(CN3CCN(Cc4cccc(C#N)c4)CC3)C1CO2 (stereo not shown) [Compound 97]

SMILES: COc1cc2c(cc1OC)C1=NOC(CN3CCN(C/C=C(\C)c4ccccc4)CC3)C1CO2 (single isomer, unassigned) [Compound 320]
- IC50 [1]: 20 nM
- IC50 [3]: 6.76 nM
- IC50 [2]: 32.4 nM

SMILES: C=CC(=O)Oc1ccc2c(c1)OCC1C2=NOC1CN1CCN(CC(C)=Cc2ccccc2)CC1 (stereo not shown) [Compound 251]
- hα2B pIC50 [1, 4]: 8.31
- hα2C pIC50 [3, 5]: 8.26
- 5HTT pIC50 [2, 6]: 6.89

SMILES: COc1cc2c(cc1OC)C1=NOC(CN3CCN(Cc4ccc5ccccc5c4)CC3)C1CN2 (stereo not shown) [Compound 15]
- IC50 [1, 4]: 14.5 nM
- IC50 [3, 5]: 11.5 nM
- IC50 [2]: 17 nM

- IC50 [1, 4]: 1.26 nM
- IC50 [3, 5]: 1.17 nM
- IC50 [2, 6]: 11.5 nM
SMILES: CC(=Cc1ccccc1)CN1CCN(CC2ON=C3c4ccc(O)cc4OCC32)CC1 (stereo not shown) [Compound 237]

SMILES: COc1cc2c(cc1OC)C1=NOC(CN3CCN(Cc4ccc5ccccc5c4)CC3)C1CN2 (stereo not shown) [Compound 272]
- IC50 [1, 4]: 26.9 nM
- IC50 [3, 5]: 135 nM
- IC50 [2]: 4.79 nM

- IC50 [3, 5]: 1000 nM
- IC50 [2, 6]: 1000 nM
SMILES: COc1cc2c(cc1OC)C1=NOC(CN3CCN(Cc4ccccc4C(F)(F)F)CC3)C1CO2 (stereo not shown) [Compound 79]

SMILES: CCOC(=O)N1CC2C(=NOC2CN2CCN(CC=Cc3ccccc3)CC2)c2ccccc21 (stereo not shown) [Compound 226]
- hα2B pIC50 [1, 4]: 7.09
- hα2C pIC50 [3, 5]: 6.96
- 5HTT pIC50 [2, 6]: 8.08

SMILES: O=C(N1CC2C(=NOC2CN2CCN(CC=Cc3ccccc3)CC2)c2ccccc21)C(F)(F)F (stereo not shown) [Compound 224]
- hα2B pIC50 [1, 4]: 7.66
- hα2C pIC50 [3, 5]: 7.13
- 5HTT pIC50 [2, 6]: 7.31

SMILES: CC(=Cc1ccccc1)CN1CCN(CC2ON=C3c4ccc(OC(=O)C(C)(C)C)cc4OCC32)CC1 (stereo not shown) [Compound 329]
- IC50 [1, 4]: 27.5 nM
- IC50 [3]: 18.2 nM
- IC50 [2]: 33.1 nM

- IC50 [3, 5]: 1000 nM
- IC50 [2, 6]: 145 nM
SMILES: COc1cc2c(cc1OC)C1=NOC(CN3CCN(Cc4ccc([N+](=O)[O-])cc4)CC3)C1CO2 (stereo not shown) [Compound 81]

- IC50 [1, 4]: 0.363 nM
- IC50 [2, 6]: 11.2 nM
SMILES: CC(=Cc1ccccc1)CN1CCN(CC2ON=C3c4ccc(OCCN(C)C)cc4OCC32)CC1 (stereo not shown) [Compound 242]

SMILES: COc1cc2c(cc1OC)C1=NOC(CN3CCN(CC=C(C)c4ccccc4)CC3)C1CN2 (stereo not shown) [Compound 379]
- IC50 [1, 4]: 19.5 nM
- IC50 [3, 5]: 40.7 nM
- IC50 [2, 6]: 34.7 nM

SMILES: CC(=Cc1ccccc1)CN1CCN(CC2ON=C3c4ccccc4NCC32)CC1 (stereo not shown) [Compound 234]
- hα2B pIC50 [1, 4]: 8.88
- hα2C pIC50 [3, 5]: 8.41
- 5HTT pIC50 [2, 6]: 7.71

SMILES: COc1cc2c(cc1OC)C1=NOC(CN3CCN(CC=Cc4cccc(F)c4)CC3)C1CN2 (stereo not shown) [Compound 351]
- hα2B pIC50 [1, 4]: 8.16
- hα2C pIC50 [3, 5]: 8.19
- 5HTT pIC50 [2, 6]: 8.06

SMILES: CC(=Cc1ccccc1)CN1CCN(CC2ON=C3c4ccc(OC5CCCC5)cc4OCC32)CC1 (stereo not shown) [Compound 243]
- hα2B pIC50 [1, 4]: 7.77
- hα2C pIC50 [3, 5]: 8.29
- 5HTT pIC50 [2, 6]: 6.75

- IC50 [1, 4]: 9.77 nM
- IC50 [3, 5]: 6.76 nM
SMILES: COc1cc2c(cc1OC)C1=NOC(CN3CCN(C/C(C)=C/c4ccccc4)CC3)C1CO2 (single isomer, unassigned) [Compound 129]

SMILES: CCNC(=O)Oc1cc2c(cc1OC)C1=NOC(CN3CCN(C/C(C)=C/c4ccccc4)CC3)C1CO2 (single isomer, unassigned) [Compound 340]
- pIC50 ([3]; [3H]raulwolscine 1 nM): 8.42
- pIC50 [2]: 7.64
